Measured values: patent publication EP4617261A1, “2,4,5-TRISUBSTITUTED PYRIMIDINE COMPOUND, PREPARATION METHOD THEREFOR, AND USE THEREOF” (Wenzhou Medical University, priority 2022, dated 2024)

Key:
FGFR1 kinase = molecular target: T1, FGFR1 kinase (Homo sapiens, UniProt P11362); experiment: LANCE ULTRA Assay, inhibitory activity on FGFR1 kinase; format: biochemical; details: for inhibition at 0.1 µM: read-out: In vitro FGFR1 kinase inhibition rate (%) (Concentration in 100 nM), Concentration 100 nM; for inhibition at 1 µM: read-out: In vitro FGFR1 kinase inhibition rate (%) (Concentration in 1000 nM), Concentration 1000 nM
T1 construct: purchased CARNA
T1 sequence (P11362 22-822): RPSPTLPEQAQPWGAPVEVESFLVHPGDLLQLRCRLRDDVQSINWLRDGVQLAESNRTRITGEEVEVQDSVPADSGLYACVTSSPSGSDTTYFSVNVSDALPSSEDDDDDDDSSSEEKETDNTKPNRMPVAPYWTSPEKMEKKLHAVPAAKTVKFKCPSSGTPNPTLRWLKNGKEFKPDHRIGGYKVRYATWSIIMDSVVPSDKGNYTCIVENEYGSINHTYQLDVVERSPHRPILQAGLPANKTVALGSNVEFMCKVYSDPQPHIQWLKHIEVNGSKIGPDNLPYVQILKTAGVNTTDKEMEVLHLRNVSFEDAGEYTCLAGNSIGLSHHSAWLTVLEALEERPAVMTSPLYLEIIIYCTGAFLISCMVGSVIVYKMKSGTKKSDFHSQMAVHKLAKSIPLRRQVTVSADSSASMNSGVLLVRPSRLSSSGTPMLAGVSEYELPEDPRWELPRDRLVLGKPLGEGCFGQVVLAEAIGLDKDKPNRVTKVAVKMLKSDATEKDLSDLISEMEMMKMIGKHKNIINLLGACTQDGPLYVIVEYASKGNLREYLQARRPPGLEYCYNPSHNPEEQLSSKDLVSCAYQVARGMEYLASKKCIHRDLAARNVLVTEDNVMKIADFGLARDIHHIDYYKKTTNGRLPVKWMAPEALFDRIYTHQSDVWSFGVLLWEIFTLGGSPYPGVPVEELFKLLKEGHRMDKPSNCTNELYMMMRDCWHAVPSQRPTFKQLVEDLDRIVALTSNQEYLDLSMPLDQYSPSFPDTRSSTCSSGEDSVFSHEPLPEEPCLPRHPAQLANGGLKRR
Description: The inhibitory activity of the compounds on FGFR1 kinase was determined using a LANCE ULTRA Assay. The FGFR1 kinase was purchased from CARNA. Specific method was as follows: the compounds under test, adenosine triphosphate (ATP), specific substrate, and FGFR1 kinase were diluted with kinase diluent. A kinase reaction mixture contained FGFR1, ATP, substrate, HEPES (pH = 7.5), MgCl2, EGTA, and Tween-20. A group without any test compound served as a 100% phosphorylation control, and a group where EDTA was added immediately after the addition of FGFR1 kinase served as a 0% phosphorylation control. The kinase reaction mixture was incubated at room temperature for 1 h, and EDTA was added to terminate the reaction for 5 min, a specific antibody was then added, and the mixture was incubated at room temperature for another 1 h, and excitation light was detected using a PerkinElmer Envision Kinase Reader.

H1581 = experiment: MTT assay, cell proliferation, H1581; format: cell-based; details: Homo sapiens, NCI-H1581, H1581 cells, 72 h
Description: (§1) The effect of active compounds on cell proliferation was measured using an MTT assay. An experimental method was described as follows: the compounds under test were first dissolved in DMSO to prepare a stock solution, which was then diluted in gradient with a culture medium of the corresponding cells to prepare test samples, with a final concentration range of the compounds up to 20 µM. Cells in a logarithmic growth phase were seeded into 96-well cell culture plates at an appropriate density, and cultured overnight under corresponding culture conditions, and samples of the compound under test were added and continuously cultured for 72 h.

MRC-5 = experiment: MTT assay, cell proliferation, MRC-5; format: cell-based; details: Homo sapiens, MRC5, MRC-5 cells, 72 h
Description: as §1

A549 = experiment: MTT assay, cell proliferation, A549; format: cell-based; details: Homo sapiens, A549 cells, 72 h
Description: as §1, with “An” for “The effect of active compounds on cell proliferation was measured using an MTT assay. An”

SMILES | inhibition at 0.1 µM (FGFR1 kinase) [%] | also measured
C=CC(=O)NC(=O)c1ccc(Nc2nc(Nc3ccc(N4CCN(C)CC4)cc3)ncc2Cl)cc1Cl [Compound 38, N-acryloyl-2-chloro-4-((5-chloro-2-((4-(4-methylpiperazine-1-yl)phenyl)amino)pyrimidine-4-yl)amino)benzamide] | 50.3 | 
C=CC(=O)Nc1ccccc1Nc1nc(Nc2ccc(N3CCN(C)CC3)cc2)ncc1Cl [Compound 9] |  | inhibition at 1 µM (FGFR1 kinase): 94.9%
C=CC(=O)Nc1ccc(CNc2nc(Nc3ccc(N4CCN(C)CC4)cc3)ncc2F)cc1 [Compound 18] | 5.5 | 
C=CC(=O)Nc1ccc(CCNc2nc(Nc3ccc(N4CCN(C)CC4)cc3)ncc2Cl)cc1 [Compound 33, N-(4-(2-((5-chloro-2-((4-(4-methylpiperazine-1-yl)phenyl)amino)pyrimidine-4-yl)amino)ethyl)phenyl)acrylamide] | 66.4 | IC50 (FGFR1 kinase; read-out: In vitro FGFR1 kinase IC50 value): 0.0607 µM
C=CC(=O)Nc1cccc(C)c1Nc1nc(Nc2ccc(N3CCN(C)CC3)cc2)ncc1F [Compound 10] |  | inhibition at 1 µM (FGFR1 kinase): 1.23%
CCN1CCN(c2ccc(Nc3cc(N(C)C(=O)Nc4c(Cl)c(OC)cc(OC)c4Cl)ncn3)cc2)CC1 [BGJ398, reference compound] |  | IC50 (H1581): 0.0867 ± 0.00151 µM; IC50 (MRC-5): 144 µM
C=CC(=O)Nc1ccc(CCNc2nc(Nc3ccc(N4CCN(C)CC4)cc3)ncc2F)cc1 [Compound 17] | 43 | 
C=CC(=O)Nc1ccc(Nc2nc(Nc3ccc(N4C[C@@H](C)N[C@@H](C)C4)c(OC)c3)ncc2Cl)cc1Cl [Compound 46] |  | IC50 (H1581): 0.018 ± 0.00178 µM; IC50 (MRC-5): 0.84 ± 0.07 µM; IC50 (A549): 0.38 ± 0.1 µM

Further lines, with some results ahead:

inhibition at 0.1 µM (FGFR1 kinase) [%] | SMILES | also measured
11.4 | C=CC(=O)Nc1cccc(C)c1Nc1nc(Nc2ccc(N3CCN(C)CC3)cc2)ncc1C(F)(F)F [Compound 14] | 
-1.1 | C=CC(=O)Nc1cccc(C)c1Nc1nc(Nc2ccc(N3CCN(C)CC3)cc2)ncc1C [Compound 12] | 
1.4 | C=CC(=O)Nc1cccc(C)c1Nc1nc(Nc2ccc(N3CCN(C)CC3)cc2)ncc1Cl [Compound 11, N-(2-((5-chloro-2-((4-(4-methylpiperazine-1-yl)phenyl)amino)pyrimidine-4-yl)amino)-3-methylphenyl)acrylamide] | 
-0.1 | C=CC(=O)Nc1cccc(C)c1Nc1nc(Nc2ccc(N3CCN(C)CC3)cc2)ncc1OC [Compound 13] | 
